Test results reported in the supplement of paper PMC10307832.

Tests used:
Assay in all cases: relative viability (nuclei count vs DMSO), 5 days (fraction); higher = more cells survive
Metformin + Bortezomib = compound: CN(C)C(=N)NC(=N)N [Metformin] + CC(C)C[C@H](NC(=O)[C@H](Cc1ccccc1)NC(=O)c1cnccn1)B(O)O [Bortezomib] (partner 0.002 µM)
How it was run: (§1)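 Medians of duplicate plates are given as relative viability. That measure is the nuclei count in treated wells divided by the count in vehicle wells. Counts were taken on 4× images of lung cancer cell lines in 1536-well plates, 5 days after pin-tool dosing the day after seeding with one drug alone or a fixed anchor-drug dose plus five library-drug doses (not always all listed) in √10 steps.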

Apatinib + Dasatinib = compound: N#CC1(c2ccc(NC(=O)c3cccnc3NCc3ccncc3)cc2)CCCC1 [Apatinib] + Cc1nc(Nc2ncc(C(=O)Nc3c(C)cccc3Cl)s2)cc(N2CCN(CCO)CC2)n1 [Dasatinib] (partner 0.075 µM)
How it was run: as §1

Metformin + Decitabine = compound: CN(C)C(=N)NC(=N)N [Metformin] + Nc1ncn([C@H]2C[C@H](O)[C@@H](CO)O2)c(=O)n1 [Decitabine] (partner 2 µM)
How it was run: as §1

Apatinib + Luminespib = compound: N#CC1(c2ccc(NC(=O)c3cccnc3NCc3ccncc3)cc2)CCCC1 [Apatinib] + CCNC(=O)c1noc(-c2cc(C(C)C)c(O)cc2O)c1-c1ccc(CN2CCOCC2)cc1 [Luminespib] (partner 0.01 µM)
How it was run: as §1

| Cell Line | relative viability (Metformin + Bortezomib; first compound 10 µM) | relative viability (Metformin + Bortezomib; first compound 31.62 µM) | relative viability (Metformin + Bortezomib; first compound 100 µM) | relative viability (Metformin + Bortezomib; first compound 316.23 µM) | relative viability (Metformin + Bortezomib; first compound 1000 µM) | relative viability (Apatinib + Dasatinib; first compound 0.08 µM) | relative viability (Apatinib + Dasatinib; first compound 0.253 µM) | relative viability (Apatinib + Dasatinib; first compound 0.8 µM) | relative viability (Apatinib + Dasatinib; first compound 2.53 µM) | relative viability (Apatinib + Dasatinib; first compound 8 µM) | relative viability (Metformin + Decitabine; first compound 10 µM) | relative viability (Metformin + Decitabine; first compound 31.62 µM) | relative viability (Metformin + Decitabine; first compound 100 µM) | relative viability (Metformin + Decitabine; first compound 316.23 µM) | relative viability (Metformin + Decitabine; first compound 1000 µM) | relative viability (Apatinib + Luminespib; first compound 0.08 µM) | relative viability (Apatinib + Luminespib; first compound 0.253 µM) | relative viability (Apatinib + Luminespib; first compound 0.8 µM) | relative viability (Apatinib + Luminespib; first compound 2.53 µM) | relative viability (Apatinib + Luminespib; first compound 8 µM) |
| --- | --- | --- | --- | --- | --- | --- | --- | --- | --- | --- | --- | --- | --- | --- | --- | --- | --- | --- | --- | --- |
| EBC-1 | 0.699 | 0.666 | 0.618 | 0.541 | 0.59 | – | – | – | – | – | – | – | – | – | – | – | – | – | – | – |
| LK-2 | – | – | – | – | – | 0.39 | 0.258 | 0.227 | 0.24 | 0.257 | 0.298 | 0.398 | 0.33 | 0.294 | 0.444 | 0.185 | 0.178 | 0.187 | 0.209 | 0.188 |
| NCI-H1703 | 0.389 | 0.394 | 0.453 | 0.42 | 0.505 | – | – | – | – | – | – | – | – | – | – | – | – | – | – | – |
| NCI-H2228 | 1.44 | 1.09 | – | 0.956 | 1.13 | 0.538 | 0.533 | 0.518 | 0.387 | 0.295 | – | – | – | – | – | 0.126 | 0.122 | 0.129 | 0.13 | 0.126 |
| NCI-H1563 | 0.917 | 0.866 | 1.02 | 0.877 | 0.954 | 0.444 | 0.41 | 0.406 | 0.475 | 0.451 | – | – | – | – | – | 0.534 | 0.536 | 0.533 | 0.548 | 0.543 |
| NCI-H1623 | – | – | – | – | – | 0.438 | 0.598 | 0.493 | 0.545 | 0.595 | – | – | – | – | – | 0.402 | 0.429 | 0.465 | 0.461 | 0.476 |
| Calu-6 | 0.842 | 0.957 | 1.06 | 0.817 | 0.66 | – | – | – | – | – | – | – | – | – | – | – | – | – | – | – |
| NCI-H1299 | 1.09 | 1.06 | 1.08 | 1.06 | 1.06 | – | – | – | – | – | – | – | – | – | – | – | – | – | – | – |
| A549 | – | – | – | – | – | – | – | – | – | – | 0.182 | 0.291 | 0.179 | 0.198 | 0.209 | – | – | – | – | – |
| NCI-H522 | – | – | – | – | – | 0.872 | 0.882 | 0.884 | 0.892 | 0.782 | 0.659 | 0.599 | 0.679 | 0.648 | 0.7 | 1.14 | 1.08 | 1.27 | 1.07 | 0.955 |
| NCI-H2170 | – | – | – | – | – | 0.551 | 0.447 | 0.489 | 0.464 | 0.572 | 0.415 | 0.436 | 0.417 | 0.395 | 0.471 | 0.841 | 0.649 | 0.609 | 0.676 | 0.621 |
| SK-MES-1 | – | – | – | – | – | 0.368 | 0.323 | 0.38 | 0.348 | 0.307 | 0.336 | 0.291 | 0.342 | 0.34 | 0.361 | 0.732 | 0.796 | 0.701 | 0.727 | 0.795 |
| NCI-H1944 | – | – | – | – | – | 0.247 | 0.204 | 0.208 | 0.254 | 0.249 | 0.361 | 0.381 | 0.437 | 0.401 | 0.453 | 0.701 | 0.773 | 0.667 | 0.644 | 0.494 |
| CAL-12T | 1.16 | 0.935 | 1.02 | 1.06 | 1.15 | 0.523 | 0.602 | 0.38 | 0.262 | 0.234 | – | – | – | – | – | 0.565 | 0.315 | 0.261 | 0.882 | 0.661 |
